For assay [1], the system named is T-lymphocytes (BALB/cBYJ responder spleen cells with mitomycin C treated C57BL/6J stimulator spleen cells). Description: Mixed lymphocyte response (MLR). In kind it is cell-based, mouse. Particulars: estimated IC50, 5 days at 37° C., MTT, 1, 10, 30, 100, and 300 μM. The source says: i Mixed lymphocyte response (MLR).
(§1) The MLR assay measures the effects of a study compound on the activation and antigen presentation of T-lymphocytes, therefore determining immunomodulatory properties. The mouse spleen cell mitogen-induced blastogenesis and the BUD-8 human fibroblast proliferation assays measure the effects of the compounds of the present invention on cellular proliferation of cells involved in the pathogenesis of autoimmune diseases. These two assays are appropriate as screens to ascertain anti-inflammatory and/or autoimmune beneficial activity and are art accepted for such purposes.
The MLR is a classical assay used to measure T cell function by studying the proliferation response of T cells which are activated in vitro by genetically disparate stimulator cells. This is accomplished by co-culturing spleen cells from two different strains of mice. Splenic T cell proliferation occurs as a result of cellular activation signals generated by the ongoing cellular interactions.
In performing MLR assays, BALB/cBYJ mice were euthanized by cervical dislocation and their spleens removed. Single cell suspensions were prepared in culture medium (RPMI-1640 with hepes supplemented with 10% calf serum, 2 mM glutamine, 500 units penicillin/streptomycin, and 4×10^-5 M 2-mercaptoethanol) using a Teflon pestle. The cells were centrifuged at 1500 RPM and the pellets resuspended in ACT (0.15M Tris, 0.14M ammonium chloride, pH 7.2) in order to lyse the red blood cells. After a 5 minute incubation at 37° C. in a waterbath, the cells were washed and resuspended in culture medium. The splenic lymphocytes were counted. C57BL/6J spleen cells, which were used as stimulator cells, were prepared in the same way. The stimulator cells were treated with 50 μg/ml of mitomycin C for 20 minutes at 37° C., then washed five times in culture medium. The proliferative response were measured by culturing 5×10^5 responder spleen cells with […] in 96-well microtiter plates in the presence or absence of test article or vehicle (DMSO). Syngeneic control cultures using mitomycin C treated normal BALB/c spleen cells as the stimulator cells were also run. All cultures were run in triplicate.
Solutions of compounds of the present invention in DMSO were prepared at a stock concentration of 300 mM. Solutions were made in a culture medium to a concentration of 1, 10, 30, 100, and 300 μM. The vehicle DMSO was used as a negative control.
After incubation for 5 days at 37° C. with 5% carbon dioxide, the amount of cell proliferation was measured by adding 20 μl of MTT (10 mg/ml in PBS) (3-[4,5-dimethylthiazol-2-yl]-2,5-diphenyl-tetrazolium bromide) to each well. Plates were incubated for 4 hours at 37° C., after which 180 μl of supernatant was removed and 180 μl of 10% SDS in PBS was added. After an overnight incubation, the optical density (OD) of each well was read on a Molecular Devices microplate reader at 570-650 nm.
The results were determined by calculating the difference between the means of the allogeneic cultures and the means of the syngeneic cultures for each test compound concentration. Differences of the test article groups were compared to the difference of the control group. The percent change from the control was determined and an IC50 estimated. The criteria used to establish activity levels were:
Sixteen (16) novel compounds were assayed for their ability to modulate a Mixed Lymphocyte Response in vitro. The test compounds were added to MLR cultures to give final concentrations of 1, 10, 30, 100, and 300 μM. The responses observed in the test article treated wells were compared to the control wells. […] Based on the estimated IC50, all the test compounds were strong inhibitors of the MLR.

In assay [2] the test system is mouse spleen cells (T-lymphocyte response to Con-A). As to the kind of experiment: Concanavalin A assay (mouse spleen cell mitogen induced blastogenesis). In kind it is cell-based. Particulars: estimated IC50, Con-A 1.25 μg/ml, 3 days, MTT.
Excerpt: iii Concanavalin A assay (the mouse spleen cell mitogen induced blastogenesis).
as §1
It is known that the induction and maintenance of most inflammatory diseases are typically due to the unrestricted activity of T-lymphocytes. Therefore, it is advantageous to identify compounds which are modulators of T-lymphocyte activity for eventual use in the regulation of inflammatory diseases, including acquired immune deficiency syndrome, psoriasis, systemic lupus, erythromatosus, and rheumatoid arthritis.
A simple method is used to screen compounds for their ability to modulate T-lymphocyte activity which comprises assessing the capacity of the compounds to alter the activation of murine spleen cells in response to T-lymphocyte mitogen activators, such as Conconavalin-A (Con-A). The method used to measure the effects of the compounds of the present invention on the blastogenic response of spleen cells to the T-lymphocyte mitogen (Con-A) is as follows:
The response of a mouse spleen cells to the T cell mitogen Con-A is a classical assay. In this assay, mice were euthanized by cervical dislocation and their spleens removed surgically. A single cell suspension of the spleens was prepared in culture medium (RPMI-1640 with hepes, supplemented with 10% calf serum, 2 mM glutamine, 500 units penicillin/streptomycin, and 4×10^-5 M 2-mercaptoethanol) using a Teflon pestle. The cells were centrifuged at 1500 RPM and the pellets resuspended in ACT (0.15M Tris, 0.14M Ammonium chloride, pH 7.2) in orde to lyse the red blood cells. After a five minutes incubation in a 37° C. waterbath, the cells were washed and resuspended in culture medium. The splenic lymphocytes were counted using an electronic Coulter Counter and diluted to 5.0×10^6 cells/ml.
The test articles were diluted in culture medium to the appropriate concentrations. 100 μl aliquots were distributed to triplicate wells in a 96-well microtiter plate. 50 μl of lymphocytes (2.5×10^5 cells) were added to each well. Control wells with vehicle and wells with media were also run. Plates were incubated for one hour at 37° C. 50 μl of Con-A ([…]) were then added to the wells to result in a final concentration of 1.25 μg/ml. After incubation at 37° C. with 5% carbon dioxide for 3 days, proliferation was measured by adding 20 μl of MTT (10 mg/mlin PBS) [3-(4,5-dimethyl-thiazol-2-yl)-2,5-diphenyl tetrazolium bromide] to each well. Plates were incubated for 4 hours at 37° C., after which 180 μl of 10% SDS in PBS were added. After an overnight incubation, the optical density (OD) of each well was read using a Molecular Devices microplate reader at 570-650 nm.
Duplicate cultures without Con-A were also set up. After 3 days of incubation, supernatants were assayed for lactate dehydrogenase activity to determine the viability of the cells, which is an indication of the toxicity of the test article on the splenic lymphocytes. 0.1 ml of supernatant was mixed with 0.1 ml of the LDH substrate mixture which contains 5.4×10^-2 M L(+) lactate, 6.6×10^-4 M 2-p-iodophenyl-3-p-nitrophenyl tetrazolium chloride, 2.8×10^-4 M phenazine methosulfate, 1.3×10^-3 M NAD, and 0.2M Tris buffer, pH 8.2. Plates were read immediately for 5 minutes at 490 nm using a Molecular Devices microplate reader.
The mean for each test article treated group was determined and compared to the mean of the control group. […]

Setting [3] is: Mus musculus, T-lymphocyte, 120 h.
The mark [4] stands for this setting: Mus musculus, T-lymphocyte, 72 h.

As a reminder, the IC50 is the concentration at which inhibition is half-maximal. As to “n-Nonyloxypropyl 2,3-O-(1-methylethylidene)-6-deoxy-6-aminothylpyrrolidinyl-α-D-mannofuranoside [Compound 7]”, the IC50 in assay [1] is 0.75 µM; in assay [2], 2.9 µM.

For the molecule `CCCCCCCCCOCCCO[C@H]1O[C@H]([C@H](O)CNCCCCCCC)[C@@H]2OC(C)(C)O[C@H]12` [Compound 8, n-Nonyloxypropyl 2,3-(1-methylethylidene)-6-deoxy-6-aminoheptyl-α-D-mannofuranoside], the IC50 in assay [1] (setting [3]) was less than 1 µM; in assay [2] (setting [4]), 17 µM.

As to `CCCCCCCCCOCCCO[C@H]1O[C@H]([C@@H](C)OCCN2CCCC2)[C@@H]2OC(C)(C)O[C@H]12` [Compound 12, n-Nonyloxypropyl 2,3-O-(1-methylethylidene)-6-deoxy-5-O-(N'-ethylpyrrolidinyl)-α-D-mannofuranoside], the figures for the IC50 in assay [1] (setting [3]) and in assay [2] (setting [4]) were less than 0.5 µM and 3.2 µM, respectively.

Regarding `C[C@@H]([C@H]1O[C@H](OCCCc2ccccc2)[C@H]2OC(C)(C)O[C@H]21)N1CCCC1` [Compound 24, Phenylpropyl 5,6-dideoxy 2,3-O-(1-methylethylidene)-5-pyrrolidinyl-β-L-gulofuranoside], the IC50 in assay [1] (setting [3]) is less than 1 µM; in assay [2] (setting [4]), 28 µM.

Take `CCCCCCCCCOCCCO[C@H]1O[C@H]([C@@H](C)OCCCN(C)C)[C@@H]2OC(C)(C)O[C@H]12` [Compound 10, n-Nonyloxypropyl 2,3-O-(1-methylethylidene)-6-deoxy-5-O-(N,N-dimethylaminopropyl)-α-D-mannofuranoside]: the values for the IC50 in assay [1] (setting [3]) and in assay [2] (setting [4]) were less than 1 µM and 3 µM, respectively.

In the case of `CC1(C)O[C@@H]2[C@H](O1)[C@@H](OCCCc1ccccc1)O[C@@H]2[C@H](O)CN1CCCC1` [Compound 20, Phenylpropyl 6-deoxy 2,3-O-(1-methylethylidene)-6-pyrrolidinyl-α-D-mannofuranoside], the values for the IC50 in assay [1] (setting [3]) and in assay [2] (setting [4]) were less than 1 µM and 59 µM, respectively.

In the case of `CCCCCCCCCOCCCO[C@H]1O[C@H]([C@H](O)CN2CCCCC2)[C@@H]2OC(C)(C)O[C@H]12` [Compound 4, n-Nonyloxypropyl 2,3-O-(1-methylethylidene)-6-deoxy-6-piperidinyl-α-D-mannofuranoside], the IC50 in assay [1] (setting [3]) was 27 µM; in assay [2] (setting [4]), 2.7 µM.

Consider `CC1(C)O[C@@H]2[C@H](O1)[C@@H](OCCCCN1CCCC1)O[C@@H]2[C@H](O)CO` [Compound 29, 4'-(1-Pyrrolidinyl)butyl 2,3-O-(1-methylethylidene)-α-D-mannofuranoside], for which the IC50 in assay [1] (setting [3]) was 26 µM; in assay [2] (setting [4]), 49 µM.

Consider `C[C@@H](OCCN1CCCC1)[C@H]1O[C@H](OCCCc2ccccc2)[C@H]2OC(C)(C)O[C@H]21` [Compound 27, Phenylpropyl 6-deoxy 2,3-O-(1-methylethylidene)-5-O-(N'-ethylpyrrolidinyl)-α-D-mannofuranoside], for which the IC50 was 5.8 µM in assay [1] (setting [3]) and less than 3 µM in assay [2] (setting [4]).

Turning to `C[C@@H](OCCCN(C)C)[C@H]1O[C@H](OCCCc2ccccc2)[C@H]2OC(C)(C)O[C@H]21` [Compound 26, Phenylpropyl 6-deoxy 2,3-O-(1-methylethylidene)-5-O-3'-(N'N'-dimethylamino-n-propyl)-α-D-mannofuranoside], the IC50 in assay [1] (setting [3]) was less than 1 µM; in assay [2] (setting [4]), 18 µM.

For `CCCCCCCCCOCCCO[C@H]1O[C@H]([C@H](O)CN2CCOCC2)[C@@H]2OC(C)(C)O[C@H]12` [Compound 5, n-Nonyloxypropyl 2,3-O-(1-methylethylidene)-6-deoxy-6-morpholinyl-α-D-mannofuranoside], the IC50 in assay [1] (setting [3]) is 19 µM; in assay [2] (setting [4]) it was 17 µM.

`CC1(C)O[C@@H]2[C@H](O1)[C@@H](OCCCc1ccccc1)O[C@@H]2[C@H](O)CNCCCN1CCCC1` [Compound 22, Phenylpropyl 6-deoxy 2,3-O-(1-methylethylidene)-6-aminopropylpyrrolidinyl-α-D-mannofuranoside]: the IC50 in assay [1] (setting [3]) is 0.85 µM; in assay [2] (setting [4]), 2.5 µM.

For the molecule `CCCCCCCNC[C@@H](O)[C@H]1O[C@H](OCCCc2ccccc2)[C@H]2OC(C)(C)O[C@H]21` [Compound 21, Phenylpropyl 6-deoxy 2,3-O-(1-methylethylidene)-6-heptylamino-α-D-mannofuranoside], the IC50 in assay [1] (setting [3]) is less than 1 µM; in assay [2] (setting [4]), 7 µM.

As for `CCCCCCCCCOCCCO[C@H]1O[C@H]([C@H](O)CN2CCCCCC2)[C@@H]2OC(C)(C)O[C@H]12` [Compound 6, n-Nonyloxypropyl 2,3-O-(1-methylethylidene)-6-deoxy-6-hexamethyleneimino-α-D-mannofuranoside], the results for the IC50 in assay [1] (setting [3]) and in assay [2] (setting [4]) were less than 0.5 µM and 3.2 µM, respectively.

Take `CCCCCCCCCOCCCO[C@H]1O[C@H]([C@H](O)CN2CCCC2)[C@@H]2OC(C)(C)O[C@H]12` [Compound 3, n-Nonyloxypropyl 2,3-O-(1-methylethylidene)-6-deoxy-pyrrolidinyl-α-D-mannofuranoside]: the half-maximal inhibitory concentration (IC50) in assay [1] (setting [3]) is less than 1 µM; in assay [2] (setting [4]) it was 3.3 µM.

Consider `CCCCCCCCCOCCCO[C@H]1O[C@H]([C@H](C)N2CCCC2)[C@@H]2OC(C)(C)O[C@H]12` [Compound 15, n-Nonyloxypropyl 5,6-dideoxy-2,3-O-(1-methylethylidene)-5-pyrrolidinyl-β-L-gulofuranoside], for which the IC50 in assay [1] (setting [3]) was 0.99 µM; in assay [2] (setting [4]) it was 2.8 µM.

The values are drawn from patent US5360794A, “Disubstituted and deoxy disubstituted derivatives of α-D-mannofuranosides and β-L-gulofuranosides having anti-inflammatory and anti-proliferative activity” (Medicarb Inc., priority 1992, dated 1994).
